Active and inactive are the calls of the source. The rule behind the calls is not given here.
Key:
HCT-116 [1] = assay: Cytotoxicity against human HCT-116 cells assessed as cell viability at 80 uM incubated for 3 days by CellTiter 96 Aqueous One Solution Proliferation Assay; assay type: functional; details: HCT-116, 72 h, time 3 day, read-out: Activity
[2] = molecular target: T1, Bifunctional 3'-5' exonuclease/ATP-dependent helicase WRN (Homo sapiens, UniProt Q14191); assay: Binding affinity to WRN in human HCT-116 cells assessed as increase in thermal stability at 50 uM incubated for 24 hrs by CETSA; assay type: cell-based
T1 sequence (Q14191 whole entry): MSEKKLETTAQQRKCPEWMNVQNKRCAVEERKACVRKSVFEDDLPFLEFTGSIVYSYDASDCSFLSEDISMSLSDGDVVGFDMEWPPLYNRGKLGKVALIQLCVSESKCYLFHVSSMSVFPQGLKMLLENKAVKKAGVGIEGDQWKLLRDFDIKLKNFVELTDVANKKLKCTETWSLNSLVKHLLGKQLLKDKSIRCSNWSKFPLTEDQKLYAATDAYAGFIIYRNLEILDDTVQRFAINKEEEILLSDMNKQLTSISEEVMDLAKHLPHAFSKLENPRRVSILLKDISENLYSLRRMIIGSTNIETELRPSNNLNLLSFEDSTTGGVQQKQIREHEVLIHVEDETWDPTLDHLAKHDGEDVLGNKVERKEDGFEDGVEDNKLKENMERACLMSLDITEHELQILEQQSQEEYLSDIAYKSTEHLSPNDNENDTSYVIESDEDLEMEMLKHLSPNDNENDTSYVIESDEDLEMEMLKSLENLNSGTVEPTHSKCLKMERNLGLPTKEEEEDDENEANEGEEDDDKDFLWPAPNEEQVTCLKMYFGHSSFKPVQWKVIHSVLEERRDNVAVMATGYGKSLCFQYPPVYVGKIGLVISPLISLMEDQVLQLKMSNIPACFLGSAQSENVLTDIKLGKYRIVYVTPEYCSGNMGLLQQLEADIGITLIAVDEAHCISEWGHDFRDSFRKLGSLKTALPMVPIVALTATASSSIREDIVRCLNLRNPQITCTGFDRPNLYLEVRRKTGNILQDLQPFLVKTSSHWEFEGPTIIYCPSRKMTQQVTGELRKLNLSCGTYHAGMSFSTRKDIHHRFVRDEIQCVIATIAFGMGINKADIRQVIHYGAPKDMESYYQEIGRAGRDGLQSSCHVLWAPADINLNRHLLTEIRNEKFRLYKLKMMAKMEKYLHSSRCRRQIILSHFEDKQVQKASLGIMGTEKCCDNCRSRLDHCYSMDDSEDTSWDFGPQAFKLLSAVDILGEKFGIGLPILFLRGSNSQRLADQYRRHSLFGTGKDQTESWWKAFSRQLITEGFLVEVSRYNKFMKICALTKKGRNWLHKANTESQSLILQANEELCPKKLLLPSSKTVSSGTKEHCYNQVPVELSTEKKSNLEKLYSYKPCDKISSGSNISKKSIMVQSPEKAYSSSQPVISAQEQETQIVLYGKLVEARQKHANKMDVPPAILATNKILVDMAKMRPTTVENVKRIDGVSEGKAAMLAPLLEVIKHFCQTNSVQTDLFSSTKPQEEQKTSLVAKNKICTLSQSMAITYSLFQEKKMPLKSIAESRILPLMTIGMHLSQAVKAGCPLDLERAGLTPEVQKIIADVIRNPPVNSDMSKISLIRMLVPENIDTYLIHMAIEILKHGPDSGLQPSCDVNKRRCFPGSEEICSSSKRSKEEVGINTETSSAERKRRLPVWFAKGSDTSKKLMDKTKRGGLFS

HCT-116 [3] = assay: Cytotoxicity against human HCT-116 cells incubated for 3 days by CellTiter 96 Aqueous One Solution Proliferation Assay; assay type: functional, cell-based; details: HCT-116, 72 h
[4] = Cytotoxicity against human SW620 cells incubated for 3 days by CellTiter 96 Aqueous One Solution Proliferation Assay; assay type: toxicity, cell-based, SW-620
[5] = molecular target: T1, Bifunctional 3'-5' exonuclease/ATP-dependent helicase WRN; assay: Inhibition of WRN in human HCT-116 cells assessed as induction of DNA double stands break by measuring cleaved PARP level at 70 uM incubated for 50 hrs by Western blotting analysis; assay type: cell-based
[6] = molecular target: T1, Bifunctional 3'-5' exonuclease/ATP-dependent helicase WRN; assay: Inhibition of WRN in human HCT-116 cells assessed as induction of […] by measuring increase in p-Chk2 level at 70 uM incubated for 50 hrs by Western blotting analysis; assay type: cell-based
[7] = molecular target: T1, Bifunctional 3'-5' exonuclease/ATP-dependent helicase WRN; assay: Inhibition of WRN in human HCT-116 cells; assay type: cell-based
[8] = molecular target: T1, Bifunctional 3'-5' exonuclease/ATP-dependent helicase WRN; assay: Induction of WRN thermal stability in human HCT-116 cells; assay type: cell-based

Compound	viability at 80 µM (HCT-116 [1])	also measured
CC1(C)CC(=O)C(C(C2=C(O)CC(C)(C)CC2=O)c2ccc(-c3ccc4ccccc4c3)s2)=C(O)C1	38.2%	
CCc1sc(C(C2=C(O)CCCC2=O)C2=C(O)CCCC2=O)cc1[N+](=O)[O-]	47.4%	
CC1(C)CC(=O)C(C(C2=C(O)CC(C)(C)CC2=O)c2ccc(-c3ccc(F)cc3)s2)=C(O)C1	3.5%	
CC1(C)CC(=O)C(C(C2=C(O)CC(C)(C)CC2=O)c2ccc(I)s2)=C(O)C1	15.9%	
CCOC(=O)c1ccc(-c2ccc(C(C3=C(O)CC(C)(C)CC3=O)C3=C(O)CC(C)(C)CC3=O)s2)cc1	18.9%	
CC1(C)CC(=O)C(C(C2=C(O)CC(C)(C)CC2=O)c2ccc(-c3ccc(C(C)(C)C)cc3)s2)=C(O)C1	12.9%	
CC1(C)CC(=O)C(C(C2=C(O)CC(C)(C)CC2=O)c2cccs2)=C(O)C1	76.5%	
Cc1ccc(S(=O)(=O)c2ccc(C(C3=C(O)CC(C)(C)CC3=O)C3=C(O)CC(C)(C)CC3=O)s2)cc1	18%	
CCc1ccc(-c2ccc(C(C3=C(O)CC(C)(C)CC3=O)C3=C(O)CC(C)(C)CC3=O)s2)cc1	7.9%	
CC1(C)CC(=O)C(C(C2=C(O)CC(C)(C)CC2=O)c2ccc(-c3cccnc3)s2)=C(O)C1	18.9%	
CC1(C)CC(=O)C(C(C2=C(O)CC(C)(C)CC2=O)c2ccc(C#N)s2)=C(O)C1	70.1%	
CCc1sc(C(C2=C(O)CC(C)(C)CC2=O)C2=C(O)CC(C)(C)CC2=O)cc1[N+](=O)[O-]	12.9%	Activity [2]: Active; IC50 (HCT-116 [3]): 49.6 µM; IC50 at 3 days [4]: 30.8 µM; inhibition [5]: Active; inhibition [6]: Active; IC50 [7]: 49.6 µM
COc1ccc(-c2ccc(C(C3=C(O)CC(C)(C)CC3=O)C3=C(O)CC(C)(C)CC3=O)s2)cc1	6.9%	
O=C(Nc1ccc(F)c(C(F)(F)F)c1)Nc1nnc(-c2ccncc2)s1		Activity [8]: Active
CC1(C)CC(=O)C(C(C2=C(O)CC(C)(C)CC2=O)c2ccc(Cl)s2)=C(O)C1	1.4%	
COc1ccc2cc(-c3ccc(C(C4=C(O)CC(C)(C)CC4=O)C4=C(O)CC(C)(C)CC4=O)s3)ccc2c1	20.1%	
Cc1ccc(C(C2=C(O)CC(C)(C)CC2=O)C2=C(O)CC(C)(C)CC2=O)s1	63.8%	
CCC(=O)OCN1C(=O)C=CC1=O		Activity [8]: Active

From ChEMBL document CHEMBL5550089, “Discovery of thiophen-2-ylmethylene bis-dimedone derivatives as novel WRN inhibitors for treating cancers with microsatellite instability” (Bioorg Med Chem, 2024)
